Reference: US8772509B2, “Indole compounds as positive allosteric modulators of the muscarinic receptor” (Vanderbilt University, priority 2010, dated 2014)

Biological target: T1, mAChR M1 (UniProt P08482)
T1 sequence (P08482 1-460): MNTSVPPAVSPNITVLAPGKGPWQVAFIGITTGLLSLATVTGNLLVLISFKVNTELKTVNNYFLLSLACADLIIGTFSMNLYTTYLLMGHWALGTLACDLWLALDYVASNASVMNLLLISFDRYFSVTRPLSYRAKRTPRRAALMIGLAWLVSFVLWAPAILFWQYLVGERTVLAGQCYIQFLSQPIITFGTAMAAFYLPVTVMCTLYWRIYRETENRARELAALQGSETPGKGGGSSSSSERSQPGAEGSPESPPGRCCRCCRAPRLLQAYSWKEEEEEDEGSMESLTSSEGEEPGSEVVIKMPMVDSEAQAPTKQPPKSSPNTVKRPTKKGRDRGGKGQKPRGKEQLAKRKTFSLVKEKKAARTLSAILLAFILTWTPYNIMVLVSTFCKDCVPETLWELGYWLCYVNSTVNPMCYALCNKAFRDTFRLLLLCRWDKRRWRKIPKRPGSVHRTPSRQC
Assay: mAChR M1 cell-based functional assay (calcium mobilization, Fluo-4, FDSS)

SMILES: Cc1cc(NC(=O)CS(=O)(=O)c2cn(Cc3cccc(Br)c3)c3cc(F)cc(F)c23)no1 [compound 30, 2-((1-(3-bromobenzyl)-4,6-3-yl)sulfonyl)-N-(5-methylisoxazol-3-yl)acetamide]
- Efficacy (% ACh maximum at 30 μM) (maximal calcium flux response from curve fit or response at 30 μM compound, as % of the EC80 ACh response): 103%
- EC50 (positive allosteric modulation of EC20 acetylcholine response, CHO-K1 cells expressing mAChR M1, read-out: Potency (EC50)): 5.37 µM
